From patent US20040067531A1, “Methods of modulating protein tyrosine kinase function with substituted indolinone compounds” (SUGEN, INC., priority 1997, published 2004)
pIC50: −log10 of the molar value.

Key:
[1] = molecular target: Myc-GyrB-FGFR fusion protein (Homo sapiens, UniProt P11362); assay: ELISA assay measuring the kinase activity of the FGF receptor (Myc-GyrB-FGFR from COS/FGFR cell lysate); type: biochemical; conditions: 7 μM ATP
Method: The following protocol describes the reagents and procedures used to analyze protein-tyrosine kinase activity of the Myc-GyrB-FGFR fusion protein.
Coat Corning 96 well ELISA plates with 1.0 μg/well of Rabbit αGyrB antibody in PBS for a total well volume of 100 μL. Store overnight at 4° C.
Remove unbound Rabbit antibody by inverting plate to remove liquid. Pat plate on a paper towel to remove excess liquid and bubbles
Add 100 μL of Blocking Buffer (TBB) to each well. Incubate while shaking on a microliter plate shaker at room temperature for 30 min.
Wash 4× with TBST. Pat plate on a paper towel to remove excess liquid and bubbles.
Add 15 μg COS/FGFR cell lysate Myc-GyrB-FGFR sources per well in HNTG for a final volume of 100 μL per well. Incubate while shaking on a micro-liter plate shaker at room temperature for 2 hours.
Wash 4× with TBST as described in step 4.
Add 80 μL of 1× kinase buffer per well.
Dilute compunds/extracts 1:10 (or as stated otherwise) in 1× kinase buffer +1% DMSO in a polypropylene 96 well plate.
At this point diluted Compounds/Extracts are added to the ELISA plate. […]

PDGF receptor = PDGF receptor (Homo sapiens, UniProt P09619); assay: ELISA assay measuring the kinase activity of the PDGF receptor in U1242 cells; type: cell-based; conditions: ligand stimulation, phosphotyrosine ELISA
PDGF receptor, sequence (P09619 33-1106): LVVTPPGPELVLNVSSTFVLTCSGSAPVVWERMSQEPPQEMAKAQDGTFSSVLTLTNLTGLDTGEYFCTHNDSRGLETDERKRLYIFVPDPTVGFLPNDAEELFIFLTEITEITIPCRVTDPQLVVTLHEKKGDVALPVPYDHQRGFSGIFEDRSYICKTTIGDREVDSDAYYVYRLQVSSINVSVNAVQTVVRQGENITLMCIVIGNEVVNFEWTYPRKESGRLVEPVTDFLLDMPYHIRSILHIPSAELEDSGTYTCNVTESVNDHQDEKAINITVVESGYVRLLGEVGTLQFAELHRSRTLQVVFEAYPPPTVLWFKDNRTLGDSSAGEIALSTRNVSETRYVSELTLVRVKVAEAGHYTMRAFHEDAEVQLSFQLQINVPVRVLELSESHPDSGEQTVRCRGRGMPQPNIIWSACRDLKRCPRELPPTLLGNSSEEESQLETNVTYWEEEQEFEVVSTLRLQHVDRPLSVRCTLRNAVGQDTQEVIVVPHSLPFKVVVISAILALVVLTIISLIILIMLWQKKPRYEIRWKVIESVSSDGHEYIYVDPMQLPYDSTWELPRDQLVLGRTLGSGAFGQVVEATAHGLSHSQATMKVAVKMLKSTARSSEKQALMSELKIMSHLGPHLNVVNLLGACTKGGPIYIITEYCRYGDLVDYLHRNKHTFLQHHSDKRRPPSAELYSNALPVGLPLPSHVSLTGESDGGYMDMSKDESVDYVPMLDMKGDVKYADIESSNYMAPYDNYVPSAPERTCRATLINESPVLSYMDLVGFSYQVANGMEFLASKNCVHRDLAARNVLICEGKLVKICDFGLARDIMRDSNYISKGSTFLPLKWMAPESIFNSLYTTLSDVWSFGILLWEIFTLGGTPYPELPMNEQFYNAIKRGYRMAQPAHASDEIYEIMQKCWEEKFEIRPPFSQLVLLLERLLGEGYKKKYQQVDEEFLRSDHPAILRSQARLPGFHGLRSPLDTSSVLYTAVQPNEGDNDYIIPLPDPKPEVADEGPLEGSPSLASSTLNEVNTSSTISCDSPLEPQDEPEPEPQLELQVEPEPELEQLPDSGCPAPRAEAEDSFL
Method: All cell culture media, glutanine, and fetal bovine serum were purchased from Gibco Life Technologies (Grand Island, N.Y.) unless otherwise specified. All cells were grown in a humid atmosphere of 90-95% air and 5-10% CO2 at 37° C. All cell lines were routinely subcultured twice a week and were negative for mycoplasma as determined by the Mycotect method (Gibco).
For ELISA assays, cells (U1242, obtained from Joseph Schlessinger, NYU) were grown to 80-90% confluency in growth medium (MEM with 10% FBS, NEAA, 1 mM NaPyr and 2 mM GLN) and seeded in 96-well tissue culture plates in 0.5% serum at 25,000 to 30,000 cells per well. After overnight incubation in 0.5% serum-containing medium cells were changed to serum-free medium and treated with test compound for 2 hr in a 5% CO21 37° C. incubator. […] Absorbance at 410 nm with a reference wavelength of 630 nm was recorded about 15 to 30 min after ABTS addition.
(§1) The IC50 values were measured for several of the compounds of the invention.

EGFR protein = molecular target: T1, EGFR protein (Homo sapiens, UniProt P00533); assay: ELISA assay measuring the kinase activity of the EGF receptor (EGFR captured from A431 cell lysate); type: biochemical
T1 construct: A431 cell lysate; endogenous in cells; host or cells: A431
T1 sequence (P00533 25-1210): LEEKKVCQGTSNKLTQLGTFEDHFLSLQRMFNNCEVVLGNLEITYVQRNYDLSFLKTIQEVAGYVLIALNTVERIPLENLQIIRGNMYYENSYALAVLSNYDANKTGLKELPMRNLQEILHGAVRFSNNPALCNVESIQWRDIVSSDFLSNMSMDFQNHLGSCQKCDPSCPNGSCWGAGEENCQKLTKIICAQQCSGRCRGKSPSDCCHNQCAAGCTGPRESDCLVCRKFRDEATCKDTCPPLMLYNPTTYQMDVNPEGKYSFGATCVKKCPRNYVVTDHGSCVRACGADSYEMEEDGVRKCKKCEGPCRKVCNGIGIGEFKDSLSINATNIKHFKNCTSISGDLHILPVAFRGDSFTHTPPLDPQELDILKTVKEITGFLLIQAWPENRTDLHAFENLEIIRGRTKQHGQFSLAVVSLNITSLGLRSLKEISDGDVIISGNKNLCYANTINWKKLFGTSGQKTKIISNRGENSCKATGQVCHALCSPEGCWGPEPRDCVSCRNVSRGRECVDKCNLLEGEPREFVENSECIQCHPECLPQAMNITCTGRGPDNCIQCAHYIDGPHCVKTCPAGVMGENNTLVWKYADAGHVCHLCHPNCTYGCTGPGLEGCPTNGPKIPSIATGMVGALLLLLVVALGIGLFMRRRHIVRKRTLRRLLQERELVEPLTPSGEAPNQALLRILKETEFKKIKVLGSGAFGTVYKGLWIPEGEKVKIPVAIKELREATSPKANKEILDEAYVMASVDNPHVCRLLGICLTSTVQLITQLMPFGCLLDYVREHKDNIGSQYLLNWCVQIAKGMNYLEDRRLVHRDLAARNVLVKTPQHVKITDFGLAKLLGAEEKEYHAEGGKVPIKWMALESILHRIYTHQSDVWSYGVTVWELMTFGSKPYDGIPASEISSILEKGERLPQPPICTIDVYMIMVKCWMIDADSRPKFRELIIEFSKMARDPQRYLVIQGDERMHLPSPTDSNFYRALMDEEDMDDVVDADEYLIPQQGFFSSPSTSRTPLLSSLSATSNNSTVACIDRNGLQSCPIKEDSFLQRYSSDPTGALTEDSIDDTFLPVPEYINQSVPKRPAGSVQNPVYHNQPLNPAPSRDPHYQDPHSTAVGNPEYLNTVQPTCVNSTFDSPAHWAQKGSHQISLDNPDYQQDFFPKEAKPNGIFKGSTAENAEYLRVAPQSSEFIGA
Method: The following protocol describes the reagents and procedures used to analyze protein tyrosine kinase activity on the EGFR protein.
All of the following steps are conducted at room temperature unless it is specifically indicated. All ELISA plate washing is by rinsing 4× with TBST.
1. Coat Corning 96 well ELISA plates with 0.5 μg/well of SUMO1 in a volume of 100 μL PBS. Store overnight at 4° C.
2. Remove unbound SUMO1 by inverting plate to remove liquid. Wash plates with distilled water. Pat plate on a paper towel to remove excess liquid and bubbles
3. Add 150 μL of Blocking Buffer to each well. Incubate while shaking on a microliter plate shaker at room temperature for 30 min.
4. Wash 3× with deionized water, then once with TBST. Pat plate on a paper towel to remove excess liquid and bubbles.
5. Dilute lysate in PBS (7 μg of lysate/100 μL of PBS).
6. Add 100 μL of diluted lysate to each well. Shake at room temperature for 60 min.
7. Wash as described in step 4.
8. Add 120 μL TBS to ELISA plate containing captured EGFR.
9. Dilute drugs/extracts 1:10 (unless specified otherwise) in TBS in 96-well polypropylene plates.
10. Add 13.5 μL diluted drugs/extracts to ELISA plate.
11. Incubate for 30 minutes while shaking at room temperture.
12. […] Incubate while shaking on a micro-liter plate shaker at room temperature for 5 min.
13. Stop Kinase reaction with the addition of 16.5 μL of 200 mM EDTA pH 8.0 to all wells.
14. Wash 4× with deionized water and twice with TBST.
15. Add 100 μL per well of anti-phosphotyrosine (1:3000 dilution in TBST). Incubate while shaking on a micro-liter plate shaker 30-45 minutes at room temperature while shaking.
16. Wash as described in step 4.
17. Add 100 μL per well of biosource Goat anti-rabbit IgG peroxidase conjugate (1:2000 dilution in TBST). Incubate 30 min. at room temerature while shaking.
18. Wash as described in step 4.
19. Add 100 μL of ABTS/H2O2 solution to each well.
20. Incubate 5 to 15 minutes while shaking. Remove any bubbles.
21. If necessary stop reaction with the addition of 10 μL of 0.2 M HCl/well.
22. Read assay on Dynatech MR7000 ELISA Plate Reader.
as §1

Myc-GyrB-FGFR fusion protein, sequence (P11362 398-822): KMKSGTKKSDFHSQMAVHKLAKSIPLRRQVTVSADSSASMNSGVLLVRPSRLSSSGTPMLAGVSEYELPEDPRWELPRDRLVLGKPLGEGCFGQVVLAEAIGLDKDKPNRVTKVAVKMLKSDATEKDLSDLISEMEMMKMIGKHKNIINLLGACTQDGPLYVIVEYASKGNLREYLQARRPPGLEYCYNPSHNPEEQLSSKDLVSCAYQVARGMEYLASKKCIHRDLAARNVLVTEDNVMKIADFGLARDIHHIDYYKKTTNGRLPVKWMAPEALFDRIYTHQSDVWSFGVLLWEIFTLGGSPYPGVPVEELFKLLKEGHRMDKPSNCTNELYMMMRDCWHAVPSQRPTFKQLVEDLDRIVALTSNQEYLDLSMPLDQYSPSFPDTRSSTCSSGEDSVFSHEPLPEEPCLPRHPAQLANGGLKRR

SMILES	pIC50 (EGFR protein)	other results
O=C(O)CCc1c(C=C2C(=O)Nc3ccccc32)[nH]c2c1CCCC2 [IN-001, 3-[2-(2-Oxo-1,2-dihydro-indol-3-ylidenemethyl)-4,5,6,7-tetrahydro-1H-indol-3-yl]-propionic acid]	–	melting point: 263 to 265 °C
O=C(O)CCc1c(C=C2C(=O)Nc3ccc(Cl)cc32)[nH]c2c1CCCC2 [IN-002, 3-[2-(5-Chloro-2-oxo-1,2-dihydro-indol-3-ylidenemethyl)-4,5.6,7-tetrahydro-1H-indol-3-yl]-propionic acid]	–	pIC50 [1]: 6.43; pIC50 (PDGF receptor): 7.30
O=C(CCc1c(C=C2C(=O)Nc3ccccc32)[nH]c2c1CCCC2)NCCN1CCOCC1 [IN-013, N-(2-Morpholin-4-yl-ethyl)-3-[2-(2-oxo-1,2-dihydro-indol-3-ylidenemethyl)-4,5,6,7-tetrahydro-1H-indol-3-yl]-propionamide]	–	melting point: 256 to 258 °C
Cc1c[nH]c(C=C2C(=O)Nc3ccccc32)c1CCC(=O)O [IN-026, 3-[4-Methyl-2-(2-oxo-1,2-dihydro-indol-3-ylidenemethyl)-1H-pyrrol-3-yl]-propionic acid]	< 4.00	–
Cc1c[nH]c(C=C2C(=O)Nc3ccc(Cl)cc32)c1CCC(=O)O [IN-027, 3-[2-(5-Chloro-2-oxo-1,2-dihydro-indol-3-ylidenemethyl)-4-methyl-1H-pyrrol-3-yl]-propionic acid]	< 4.00	–
COc1ccc2c(c1)NC(=O)C2=Cc1[nH]cc(C)c1CCC(=O)O [IN-028, 3-[2-(6-Methoxy-2-oxo-1,2-dihydro-indol-3-ylidenemethyl)-4-methyl-1H-pyrrol-3-yl]-propionic acid]	< 4.00	–
Cc1c[nH]c(C=C2C(=O)Nc3cccc(C)c32)c1CCC(=O)O [IN-029, 3-[2-(4-Methyl-2-oxo-1,2-dihydro-indol-3-ylidenemethyl)-4-methyl-1H-pyrrol-3-yl]-propionic acid]	< 4.00	–
Cc1c[nH]c(C=C2C(=O)Nc3cc(Cl)ccc32)c1CCC(=O)O [IN-030, 3-[2-(6-Chloro-2-oxo-1,2-dihydro-indol-3-ylidenemethyl)-4-methyl-1H-pyrrol-3-yl]-propionic acid]	4.01	–
Cc1c[nH]c(C=C2C(=O)Nc3ccc(Br)cc32)c1CCC(=O)O [IN-031, 3-[2-(5-Bromo-2-oxo-1,2-dihydro-indol-3-ylidenemethyl)-4-methyl-1H-pyrrol-3-yl]-propionic acid]	< 4.00	–
